Test results: patent US12077503B2, “Substituted cyclic amides and their use as herbicides” (FMC CORPORATION, priority 2015, dated 2024)
Read-outs that look alike come from different tables or passages of the source.

How the values were obtained:
Format in all cases: in vivo
Kochia (Kochia scoparia) [1] = test: Test A postemergence; details: Bassia scoparia, post-emergence, 240 h, 125 g ai/ha, Postemergence; visual injury after approximately 10 d; 0 to 100 scale where 0 is no effect and 100 is complete control; read-out: Plant response rating, Kochia
Procedure, shortened: (§1)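 Visual injury, scored on a 0–100 scale relative to untreated controls, was recorded about 10 d after application. Treatments were a preemergence soil spray over planted seeds or a postemergence spray on plants at the one- to two-leaf stage, 2 to 10 cm tall, all in loam soil–sand blend in the greenhouse.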

[2] = tested on: ragweed (common ragweed, Ambrosia elatior); test: Test A postemergence; details: Ambrosia artemisiifolia, post-emergence, 240 h, 125 g ai/ha, Postemergence; visual injury after approximately 10 d; 0 to 100 scale where 0 is no effect and 100 is complete control; read-out: Plant response rating, Ragweed
Procedure, shortened: as §1

[3] = tested on: wheat (Triticum aestivum); test: Test A postemergence; details: Triticum aestivum, post-emergence, 240 h, 125 g ai/ha, Postemergence; visual injury after approximately 10 d; 0 to 100 scale where 0 is no effect and 100 is complete control; read-out: Plant response rating, Wheat
Procedure, shortened: as §1

[4] = tested on: blackgrass (Alopecurus myosuroides); test: Test A postemergence; details: Alopecurus myosuroides, post-emergence, 240 h, 125 g ai/ha, Postemergence; visual injury after approximately 10 d; 0 to 100 scale where 0 is no effect and 100 is complete control; read-out: Plant response rating, Blackgrass
Procedure, shortened: as §1

[5] = tested on: ryegrass, Italian (Italian ryegrass, Lolium multiflorum); test: Test A postemergence; details: Lolium multiflorum, post-emergence, 240 h, 125 g ai/ha, Postemergence; visual injury after approximately 10 d; 0 to 100 scale where 0 is no effect and 100 is complete control; read-out: Plant response rating, Ryegrass, Italian
Procedure, shortened: as §1

Kochia (Kochia scoparia) [6] = test: Test A preemergence; details: Bassia scoparia, pre-emergence, 240 h, preemergence, read-out: Kochia plant response rating; for pest or weed control at 500 g/ha: 500 g ai/ha, visual injury rating about 10 d after treatment, 0 to 100 scale (0 no effect, 100 complete control)
Procedure, shortened: as §1

[7] = tested on: pigweed (Amaranthus retroflexus); test: Test A preemergence; details: Amaranthus retroflexus, pre-emergence, 240 h; for pest or weed control at 125 g/ha: 125 g ai/ha; for pest or weed control at 500 g/ha: 500 g ai/ha, visual injury rating about 10 d after treatment, 0 to 100 scale (0 no effect, 100 complete control)
[8] = tested on: ragweed (common ragweed, Ambrosia elatior); test: Test A preemergence; details: Ambrosia artemisiifolia, pre-emergence, 240 h; for pest or weed control at 500 g/ha: 500 g ai/ha, preemergence, visual injury rating about 10 d after treatment, 0 to 100 scale (0 no effect, 100 complete control), read-out: Ragweed plant response rating
Procedure, shortened: as §1

[9] = tested on: giant foxtail (Setaria faberii); test: Test A preemergence; details: Setaria faberi, pre-emergence, 240 h; for pest or weed control at 125 g/ha: 125 g ai/ha; for pest or weed control at 500 g/ha: 500 g ai/ha, visual injury rating about 10 d after treatment, 0 to 100 scale (0 no effect, 100 complete control)
Procedure, shortened: as §1

[10] = tested on: barnyardgrass (Echinochloa crus-galli); test: Test A preemergence; details: Echinochloa crus-galli, pre-emergence, 240 h; for pest or weed control at 125 g/ha: 125 g ai/ha; for pest or weed control at 500 g/ha: 500 g ai/ha, visual injury rating about 10 d after treatment, 0 to 100 scale (0 no effect, 100 complete control)
Procedure, shortened: as §1

[11] = tested on: ryegrass, Italian (Italian ryegrass, Lolium multiflorum); test: Test A preemergence; details: Lolium multiflorum, pre-emergence, 240 h; for pest or weed control at 500 g/ha: 500 g ai/ha, preemergence, visual injury rating about 10 d after treatment, 0 to 100 scale (0 no effect, 100 complete control), read-out: Ryegrass, Italian plant response rating
Procedure, shortened: as §1

[12] = tested on: sedge, umbrella (small-flower umbrella sedge, Cyperus difformis); test: Test B flooded paddy test; details: Cyperus difformis, Flood, 250 g ai/ha, read-out: Sedge, Umbrella plant response rating
Procedure, shortened: (§2)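 Compound goes directly into floodwater once pots are flooded 3 cm above soil, targeting plants at two leaves; the water depth is then held for the test duration. Plants sit 13–15 d in a greenhouse and are rated visually, 100 denoting complete control.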

[13] = tested on: barnyardgrass (Echinochloa crus-galli); test: Test B flooded paddy test; details: Echinochloa crus-galli, Flood, 250 g ai/ha; scale of 0 to 100 where 0 is no effect and 100 is complete control; read-out: Barnyardgrass plant response rating
Procedure, shortened: as §2

rice (Oryra sativa) = test: Test B flooded paddy test; details: Oryza sativa, Flood, 250 g ai/ha; scale of 0 to 100 where 0 is no effect and 100 is complete control; read-out: Rice plant response rating
Procedure, shortened: as §2

[14] = tested on: ducksalad (Heteranthera limosa); test: Test B flooded paddy test; details: Heteranthera limosa, Flood, 250 g ai/ha; scale of 0 to 100 where 0 is no effect and 100 is complete control; read-out: Ducksalad plant response rating
Procedure, shortened: as §2

[15] = preemergence, read-out: Pigweed plant response rating
[16] = preemergence, read-out: Foxtail, Giant plant response rating
[17] = preemergence, read-out: Barnyardgrass plant response rating

**Q.** Which results are given for `O=C1NC[C@H](c2cccc(C(F)(F)F)n2)[C@H]1C(=O)Nc1ccccc1F` [Compound 940]?
**A.** pest or weed control at 125 g/ha (Kochia (Kochia scoparia) [1]): 0%; pest or weed control at 125 g/ha [2]: 0%; plant injury at 125 g/ha [3]: 0%; pest or weed control at 125 g/ha [4]: 0%; pest or weed control at 125 g/ha [5]: 0%; pest or weed control at 125 g/ha (Kochia (Kochia scoparia) [6]; 125 g ai/ha, 0 to 100 scale where 0 is no effect and 100 is complete control): 0%; pest or weed control at 500 g/ha (Kochia (Kochia scoparia) [6]): 0%; pest or weed control at 125 g/ha ([7]; preemergence, 0 to 100 scale where 0 is no effect and 100 is complete control, read-out: Pigweed plant response rating): 0%; pest or weed control at 500 g/ha [7, 15]: 0%; pest or weed control at 500 g/ha [8]: 0%; pest or weed control at 125 g/ha ([9]; preemergence, 0 to 100 scale where 0 is no effect and 100 is complete control, read-out: Foxtail, Giant plant response rating): 40%; pest or weed control at 500 g/ha [9, 16]: 90%; pest or weed control at 125 g/ha ([10]; preemergence, 0 to 100 scale where 0 is no effect and 100 is complete control, read-out: Barnyardgrass plant response rating): 30%; pest or weed control at 500 g/ha [10, 17]: 70%; pest or weed control at 500 g/ha [11]: 0%; pest or weed control at 250 g/ha ([12]; scale of 0 to 100 where 0 is no effect and 100 is complete control): 0%; pest or weed control at 250 g/ha [13]: 0%; pest or weed control at 250 g/ha (rice (Oryra sativa)): 0%; pest or weed control at 250 g/ha [14]: 0%

**Q.** How did the pest or weed control at 125 g/ha (Kochia (Kochia scoparia) [1]) turn out when `CN1C[C@H](c2cc(F)cc(C(F)(F)F)c2)[C@@H](C(=O)Nc2cccc(Cl)c2F)C1=O` [Compound 995] was run?
**A.** Its pest or weed control at 125 g/ha is 0%.

**Q.** And the pest or weed control at 125 g/ha [2]?
**A.** Its pest or weed control at 125 g/ha is 0%.

**Q.** What about the plant injury at 125 g/ha [3] of the same molecule?
**A.** The plant injury at 125 g/ha was 20%.

**Q.** What about the pest or weed control at 125 g/ha [4] of the same molecule?
**A.** Its pest or weed control at 125 g/ha is 50%.

**Q.** What about the pest or weed control at 125 g/ha [5] of the same molecule?
**A.** The pest or weed control at 125 g/ha was 30%.

**Q.** What about the pest or weed control at 500 g/ha (Kochia (Kochia scoparia) [6]) of the same molecule?
**A.** Its pest or weed control at 500 g/ha is 0%.

**Q.** And the pest or weed control at 125 g/ha ([7]; Preemergence, visual injury rating after approximately 10 d, read-out: Pigweed plant response rating (0 to 100 scale, 0 is no effect, 100 is complete control))?
**A.** The pest or weed control at 125 g/ha was 20%.

**Q.** What about the pest or weed control at 500 g/ha [7, 15] of the same molecule?
**A.** The pest or weed control at 500 g/ha was 30%.

**Q.** What about the pest or weed control at 125 g/ha ([8]; 125 g ai/ha, Preemergence, visual injury rating after approximately 10 d, read-out: Ragweed plant response rating (0 to 100 scale, 0 is no effect, 100 is complete control)) of the same molecule?
**A.** The pest or weed control at 125 g/ha was 0%.

**Q.** And the pest or weed control at 500 g/ha [8]?
**A.** The pest or weed control at 500 g/ha was 20%.

**Q.** What about the pest or weed control at 125 g/ha ([9]; Preemergence, visual injury rating after approximately 10 d, read-out: Foxtail, Giant plant response rating (0 to 100 scale, 0 is no effect, 100 is complete control)) of the same molecule?
**A.** The pest or weed control at 125 g/ha was 90%.

**Q.** And the pest or weed control at 500 g/ha [9, 16]?
**A.** Its pest or weed control at 500 g/ha is 90%.

**Q.** And the pest or weed control at 125 g/ha ([10]; Preemergence, visual injury rating after approximately 10 d, read-out: Barnyardgrass plant response rating (0 to 100 scale, 0 is no effect, 100 is complete control))?
**A.** Its pest or weed control at 125 g/ha is 80%.

**Q.** And the pest or weed control at 500 g/ha [10, 17]?
**A.** Its pest or weed control at 500 g/ha is 90%.

**Q.** What about the pest or weed control at 125 g/ha ([11]; 125 g ai/ha, Preemergence, visual injury rating after approximately 10 d, read-out: Ryegrass, Italian plant response rating (0 to 100 scale, 0 is no effect, 100 is complete control)) of the same molecule?
**A.** The pest or weed control at 125 g/ha was 20%.

**Q.** What about the pest or weed control at 500 g/ha [11] of the same molecule?
**A.** The pest or weed control at 500 g/ha was 50%.

**Q.** And the pest or weed control at 250 g/ha ([12]; 0 to 100 scale where 0 is no effect and 100 is complete control)?
**A.** Its pest or weed control at 250 g/ha is 30%.

**Q.** What about the pest or weed control at 250 g/ha [13] of the same molecule?
**A.** Its pest or weed control at 250 g/ha is 25%.

**Q.** What about the pest or weed control at 250 g/ha (rice (Oryra sativa)) of the same molecule?
**A.** Its pest or weed control at 250 g/ha is 0%.

**Q.** And the pest or weed control at 250 g/ha [14]?
**A.** The pest or weed control at 250 g/ha was 70%.
